Where two headings read alike, the source gives them in different places.
Columns and labels:
[1] = in vivo
Procedure: Chicks were fed the respective basal diets for 21 days. There were six pens each containing six chicks (three male and three female) for each of eight dietary treatments, for a total of 288 birds. Chicks were housed in two Petersime brooder units with stainless steel fittings and maintained on a 24-hour constant light schedule. Tap water containing no detectable zinc and feed were available ad libitum. Feed intake was recorded per pen. At the end of the experiment, birds were weighed individually, killed by cervical dislocation, and right tibia removed and frozen individually for zinc analysis.
Zinc concentrations in basal diet, water, zinc sources, and tibias were determined by flame atomic absorption spectrophotometry (Model 5000 with an AS-50 autosampler, Perkin-Elmer, Norwalk Conn. 06859-0156, Anonymous, 1982. Analytical Methods for Atomic Absorption Spectrophotometry. Perkin-Elmer Corp., Norwalk, Conn.). Diet samples were dried at 105° C. for 12 hours, then were dry ashed at 550° C. for 12 hours, solubilized in HCl, and filtered through 42 Whatman paper. Bones were boiled for approximately 10 minutes in deionized water and cleaned of all soft tissue. Tibias with associated cartilages were dried for 12 hours at 105° C., extracted in a Soxhlet apparatus with petroleum ether for 48 hours prior to ashing, and then solubilized as indicated above. Water was concentrated 10-fold by evaporation on a hotplate. Zinc sources were refluxed for 4 hours in 1:1 (v:v) concentrated HCl--HNO3 and filtered through 42 Whatman paper. Standards were matched for macroelement and acid concentrations as needed.
Data were analyzed by two-way ANOVA with a model that included zinc source, dietary zinc concentration, and their interaction. Each of the six pens were used as experimental units. Body weight, feed intake, and percentage of bone ash were also analyzed by the General Linear Models (GLM) (SAS Institute, 1990. SAS/STAT User's Guide (Release 6.04) SAS Institute Inc., Cary, N.C.) with an LSMEANS statement and PDIFF option to compare treatment means. Multiple linear regression of bone zinc concentration on added dietary zinc concentration was calculated using GLM. Relative bioavailability estimates were calculated using slope ratios.

[2] = Chick feeding trial: feed intake, body weight, bone ash; format: in vivo; conditions: chicks fed 3 weeks
Procedure: Feed intake was recorded per pen.
Relative bioavailability estimates were calculated using slope ratios.

[3] = Sandoval et al. (1997), similar sample, cited from earlier work
[4] = 98 ° F., about 3 months, 131400 min, cited from earlier work
[5] = Hygroscopicity (weight gain in 90% humidity); format: physicochemical; conditions: 140 hr
Procedure: Tribasic zinc sulfate can be prepared in a reaction system depicted in FIG. 1. Initially the reactor vessel contained 100 ml of dionized water.
Initially the reactor vessel contained 100 ml of an aqueous solution of ammonium sulfate (400 g/l).

Water solubility = format: physicochemical
Camplobacter = assay: Effect of zinc compounds on bacteria (colony count); format: cell-based, DMV strain; conditions: each of the bacteria tested
Salmonella = assay: as above; format: cell-based, DMV strain; conditions: each of the bacteria tested
Procedure: (§1) A series of 42 test tubes were filled with 7 ml of distilled water, and the pH of the water was adjusted to a pH of 7. Fourteen tubes were selected, and 1 ml of an aqueous stock solution containing DMV (DelMarVa-Delaware, Maryland, Virginia source) strain of E. coli was added to each of the 14 tubes. A second set of 14 tubes was selected. To each tube in this second set was added 1 ml stock solution containing a DMV strain of salmonella. A third set of 14 tubes was then selected, and to each these tubes was added 1 ml of a stock solution containing a DMV strain of camplobacter.
(§2) Two tubes from each of the three sets served as controls, and no zinc compounds were added to these controls. […] The pH of half of the tubes from each set was adjusted to a pH of 2 by the addition of concentrated HCl; the pH of the other half of the tubes was maintained at a pH of 7. Sufficient water was added to each tube to provide a final volume of 10 ml. All the tubes were placed in an incubator that was maintained at 37° C. for three hours.
(§3) After three hours, 0.20 ml was taken from each of the tubes, of which 0.1 ml was used to inoculate a MacConley Ager plate and 0.1 ml was used to inoculate a Blood Ager plate. […] After 24 hours, each late was examined and the number of colonies on each plate was evaluated.

E. coli = assay: as above; format: cell-based, DMV strain; conditions: each of the bacteria tested
Procedure: as §1, §2, §3

Molecule | Bioavailability of zinc (in words) [1] | Slope ± SE (regression of bone zinc concentration on added dietary zinc concentration) [1] | Body Weight ([2]; added Zn 200 ppm) [g] | Bone Ash ([2]; added Zn 200 ppm) [ash wt %] | Feed Intake ([2]; added Zn 200 ppm) [g/bird] | Body Weight ([2]; added Zn 400 ppm) [g] | Bone Ash ([2]; added Zn 400 ppm) [ash wt %] | Feed Intake ([2]; added Zn 400 ppm) [g/bird] | Hygroscopicity [5] | further results
basic zinc chloride | equal to that of reagent grade zinc sulfate | 0.1273 ± 0.0316 | 592 | 45.1 | 724 | 563 | 43.6 | 652 | – | –
[O]=[Zn] [zinc oxide] | lower (P<0.05) than that for other sources | 0.0584 ± 0.0309 | – | – | – | 588 | 44.4 | 709 | – | Relative bioavailability value (slope ratio) ([1]; chicken, 30240 min): 49.0±10.1%; Relative value ± SE (slope ratio of bone zinc regression) ([1]; chicken, 30240 min): 49.0 ± 10.1; 95% Confidence Interval of relative value [1]: 28.7-69.2; Solubility in HCl ([3]; 60 min): 99%; Solubility in citric acid ([3]; 60 min): 69%; Solubility in neutral ammonium citrate ([3]; 60 min): 53%; Solubility in water [3]: insoluble
Cc1ncc(CO)c(CO)c1O [pyridoxine] | – | – | – | – | – | – | – | – | – | Loss of pyridoxine activity ([4]; multi-vitamin premixes containing inorganic trace minerals): about 55%; Loss of pyridoxine activity ([4]; premix containing no trace minerals): about 24%
tribasic zinc sulfate | – | – | – | – | – | – | – | – | about 4.65 % weight gain | Water solubility (Water solubility): about 15 mg zinc per liter
basic zinc sulfate | equal to that of reagent grade zinc sulfate | 0.1200 ± 0.0316 | 585 | 44.4 | 690 | 599 | 44.5 | 708 | – | –
O.O.O.O.O.O.O.O=S(=O)([O-])[O-].[Zn+2] [reagent grade zinc sulfate, zinc sulfate heptahydrate, reference compound] | – | 0.1193 ± 0.0316 | 574 | 44.2 | 710 | 559 | 42.8 | 679 | 36.1 % weight gain | –
O.O.O.O.O.O=S(=O)([O-])[O-].[Cu+2] [copper sulfate pentahydrate] | – | – | – | – | – | – | – | – | 14.4 % weight gain | –
[Cl-].[Cl-].[Zn+2] [reagent grade zinc chloride, zinc chloride] | – | – | – | – | – | – | – | – | 126.5 % weight gain | –
tribasic zinc chloride | – | – | – | – | – | – | – | – | – | Growth rate of bacteria (in words) (Camplobacter): significantly reduced the growth rate; Growth rate of bacteria (in words) (Salmonella): significantly reduced the growth rate; Growth rate of bacteria (in words) (E. coli): significantly reduced the growth rate
O=S(=O)([O-])[O-].[Cu+2].[Cu+2].[Cu+2].[Cu+2].[OH-].[OH-].[OH-].[OH-].[OH-].[OH-] [tribasic copper sulfate] | – | – | – | – | – | – | – | – | about 1.73 % weight gain | Water solubility (Water solubility): about 430 mg Cu per liter
